These results are taken from patent US4499089A, “2-Alkylthio-1-aminoalkyl-2-pyrroline-3-carbonitriles, compositions and use” (Warner-Lambert Company, priority 1983, dated 1985).

Counter-ions that a name gives are not always drawn. Like-named read-outs stand apart in the source and are kept apart here.

Data set [1] in a line: Acute toxicity in mice, seven day values. It counts as in vivo. As to conditions: mouse, in vivo, po, male NMRI mice, intragastrally. On the procedure:
(§1) Investigation of the Acute Toxicity Method:
(§2) The determination of the acute toxicity was carried out on male mice (NMRI) with a body weight of 18 to 23 g. All experimental animals were fasted for 20 hours before commencement of the investigation. Water was available ad libitum. Four animals belonged to each dosage group. The dosage sequence was logarithmic. The test substances were administered either in the form of aqueous solutions or as suspensions in 0.8% Methocel. The administered volumes amounted, in the case of subcutaneous administration, to 10 ml/kg body weight, in the case of intragastral administration to 20 ml/kg body weight.

For data set [2], the system named is carrageenin edema of the rat (paw edema). Description: Antiphlogistic action on carrageenin edema of rats. The class given is in vivo. The settings on record: 3 h after carrageenin. On the procedure: Investigation of the Antiphlogistic Action on Carrageenin Edema of Rats Method: Experimental animals were male rats (SIV 50), fasted for 20 hours, with a body weight of 110-160 g. Water was available ad libitum. After determination of the initial value of the paw volume of the right hind extremity, the test substances were administered intragastrally as suspension in 0.8% Methocel. Ten animals were used per dosage. The volume of administration amounted to 20 ml/kg body weight. The paw volume was measured plethysmometrically. Sixty minutes after intragastral administration of the test substances, 0.1 ml of a 1% carrageenin solution was injected subplanatary into the right hind paw. One and three hours after injection of the carrageenin, the paw volume of the oedematous paw was measured. The increase of the paw volume of the substance-treated animals after three hours was compared with that in the case of the control animals and the inhibition of the paw edema by the test substance was calculated as a percentage thereof.
On the technique in general: In the carrageenan paw model, swelling and tenderness develop within hours.

The test system of data set [3] is yeast fever of the rat. The data set is described as follows: Antipyretic action on yeast fever of the rat. The class given is in vivo. The settings on record: 12% yeast 20 ml/kg SC, rectal. The procedure:
Investigation of the Antipyretic Action on Yeast Fever of the Rat Method: Experimental animals were male rats (SIV 50), fasted for 20 hours, with a body weight of 115-165 g. For the production of an elevated body temperature, the animals received, 18 hours before administration of the test substances, 20 ml/kg body of a 12% dry yeast suspension subcutaneously in two to three depots. A control group received the corresponding volume of physiological NaCl solution injected subcutaneously. Ten animals were used per dosage. After three preliminary measurementds of the body temperature on the experimental day in 30-minute intervals, the test substance was administered intragastrally to the animals treated with yeast. The volume of administration amounted to 20 ml/kg body weight. A second control group treated with yeast, as well as the control group treated the previous day with physiological NaCl solution, received the corresponding vehicle instead of test substance. The body temperature of the experimental animals was measured rectally by means of thermocouple sensor 30, 60 minutes and then, in each case, hourly up to a total of five hours after substance administration.

Data set [4] relates to stomach ulcer of the rat induced by indomethacin. Description: Ulcer-protective action on stomach ulcer of the rat induced by indomethacin. The class given is in vivo. As to conditions: for Ulcer Inhibition in %: indomethacin 40 mg/kg. The procedure:
Investigation of the Ulcer-Protective Action on Stomach Ulcer of the Rat Induced by Indomethacin. Method: Experimental animals were male rats (SIV 50), fasted for 20 hours, with a body weight of 150-200 g. Water was available ad libitum. 40 mg/kg indomethacin and the substance to be tested, as suspension in 0.8% Methocel, were simultaneously administered to the animals intragastrally. The control animals only received the corresponding dosage of indomethacin. Ten animals were used per experimental group. The administration volume amount to 10 ml/kg body weight. The animals were sacrificed five hours after administration. After removal of the stomachs and opening of the curvatura major, these were investigated with a stereo magnifying glass for the presence of ulcers. The assessment of the ulcers took place according to a point scheme proposed by M. Chaumontet et al. (Arzneim.-Forsch., 28, 2119, 1978). The ulcer index was calculated herefrom. The ulcer index of the animals treated with indomethacin and test substance was compared with that of the control animals only treated with indomethacin and the ulcer inhibition calculated therefrom in percent.

Data set [5] has as its system thrombocyte aggregation (platelet-rich plasma). Description: Collagen-induced thrombocyte aggregation in vitro (rats). It counts as cell-based, rat. The settings on record: for IC50: rat PRP, collagen-induced, 3 min incubation, end concentration lowering amplitude by 50%, read-out: C50-value (arith. M. + S.D.). The procedure: Collagen-Induced Thrombocyte Aggregation In Vitro (Rats) Method: The test was carried out according to the method of BORN (Nature, 194, 927-929, 1962). As blood donors, there served male Sprague-Dawley SIV 50 rats with a body weight of 200 g. The blood sampling took place, under ether narcosis, from the retroorbital venous complex. Nine parts of blood were mixed with one part of 3.8% w/v tri-Na-citrate solution. After low speed centrifuging of the mixture at room temperature, the platelet-rich plasma (PRP, corresponding to erythrocyte-free supernatant) was removed and adjusted to a standard concentration of […]. As measurement instrument, there served an universal aggregometer (Braun, Melsungen), coupled with an Eppendorf photome[…] (Netheler and Hinz, Hamburg). In the investigation, 700 μl amounts of PRP were equilibrated in the aggregometer for five minutes at 37° C. and then mixed with 58 μl of the test substance solution or of a 0.9% NaCl solution (corresponding to the blank). After an incubation time of three minutes, the addition of 35 μl collagen suspension (collagen reagent HORM®, Hormon Chemie, Munchen) initiated the aggregation. A compensation recorder registered, in the following 15 minutes, the change of the transmission. The largest change of the transmission occurring in the period of time was called the amplitude (Amp) of the aggregation curve. Aggregation-inhibiting substances bring about a reduction of this amplitude; the inhibitory action (E) of a substance is calculated according to the following formula: E=[(Amp)blank -[…] ]×100(%) Dosage-action curves are produced on the basis of which their C50 values could be calculated. The C50 value gives the end concentration of a substance in the test system which leads to a lowering of the amplitude by 50%.

Data set [6] deals with male mice (NMRI). Description: Acute toxicity in mice, seven day values. The class given is in vivo. The settings on record: intragastrally, 10080 min. On the procedure: as §1, §2

For orientation: LD50 means the dose at which mortality reaches 50%. Turning to `CCSC1=C(C#N)C(c2ccccc2)(c2ccccc2)C(=O)N1CCCN1CCCCC1.O=C(O)C(=O)O` [Compound 15, 2-ethylthio-5-oxo-4,4-diphenyl-1-(3-piperidinopropyl)-2-pyrroline-3-carbonitrile oxalate], in data set [1], the LD50 at 168 h stood at 700 mg/kg. The “Inhibition of Paw Edema in %” value in data set [2] (150 mg/kg intragastrally) is recorded as 39%. Further, the body temperature, 60 in data set [3] (60 minutes after 150 mg/kg IG) came to 36.6 °C. The molecule further registered a body temperature, 120 in data set [3] (120 minutes after 150 mg/kg IG) of 35.8 °C. In data set [3] (180 minutes after 150 mg/kg IG), this molecule showed a body temperature, 180 of 35.9 °C. The molecule further gave a body temperature, 240 in data set [3] (240 minutes after 150 mg/kg IG) of 36.4 °C. The same molecule returned a body temperature, 300 in data set [3] (300 minutes after 150 mg/kg IG) of 37 °C. In addition, the “Ulcer Inhibition in %” value in data set [4] (150 mg/kg intragastrally) amounted to 29%.

`CC(C)SC1=C(C#N)C(c2ccccc2)(c2ccccc2)C(=O)N1CCCN(C)C` [Compound 8, 2-Isopropylthio-1-(3-dimethylaminopropyl)-5-oxo-4,4-diphenyl-2-pyrroline-3-carbonitrile] came in with an LD50 at 168 h in data set [1] of 1400 mg/kg. In data set [5] (0.05 h), the IC50 came out at 270 ± 50 µM.

Consider “1-(2-dimethylaminopropyl)-2-methylthio-5-oxo-4,4-diphenyl-2-pyrroline-3-carbonitrile [Compound 6]”, for which, in data set [6], the LD50 came out at 1200 mg/kg. Moreover, the IC50 in data set [5] stood at 190 ± 40 µM. In addition, in data set [2] (125 mg/kg intragastrally), the “Inhibition of Paw Edema in %” value was found to be 36%. The molecule further registered a body temperature, 30 in data set [3] (30 minutes after 250 mg/kg IG) of 37 °C. The same molecule showed a body temperature, 60 in data set [3] (60 minutes after 250 mg/kg IG) of 36 °C. The body temperature, 120 in data set [3] (120 minutes after 250 mg/kg IG) came out at 35.2 °C. In addition, in data set [3] (180 minutes after 250 mg/kg IG), the body temperature, 180 amounted to 34.7 °C. The body temperature, 240 in data set [3] (240 minutes after 250 mg/kg IG) turned out to be 35.1 °C. The same molecule came in with a body temperature, 300 in data set [3] (300 minutes after 250 mg/kg IG) of 35.6 °C.

As to `CCCSC1=C(C#N)C(c2ccccc2)(c2ccccc2)C(=O)N1CCN(CC)CC` [Compound 9, 1-(2-Diethylaminoethyl)-5-oxo-4,4-diphenyl-2-propylthio-2-pyrroline-3-carbonitrile], the “Ulcer Inhibition in %” value in data set [4] (250 mg/kg intragastrally) was determined as 29%.

On to `CSC1=C(C#N)C(c2ccc(N(C)C)cc2)(c2cccnc2)C(=O)N1CCCN(C)C` (centres unmarked) [Compound 21, 4-(4-Dimethylaminophenyl)-1-(3-dimethylaminopropyl)-2-methylthio-5-oxo-4-(3-pyridyl)-2-pyrroline-3-carbonitrile], for which, in data set [1], the LD50 at 168 h is 1200 mg/kg. For the same molecule, in data set [5] (0.05 h), the IC50 was determined as 160 ± 20 µM.

On to `CCSC1=C(C#N)C(c2ccccc2)(c2ccccc2)C(=O)N1CCCN` [Compound 17a, 1-(3-Aminopropyl)-2-ethylthio-5-oxo-4,4-diphenyl-2-pyrroline-3-carbonitrilehydrochloride], for which, in data set [5] (0.05 h), the IC50 is 60 µM. In addition, the aggregation-inhibiting properties result in data set [5] (in words) is recorded as “the most effective representative”.

Take `CCSC1=C(C#N)C(c2ccccc2)(c2ccccc2)C(=O)N1CCCN1CCOCC1` [Compound 5, 2-ethylthio-1-(3-morpholinopropyl)-5-oxo-4,4-diphenyl-2-pyrroline-3-carbonitrile]: the LD50 at 168 h in data set [1] was over 1600 mg/kg. The “Inhibition of Paw Edema in %” value in data set [2] (37.5 mg/kg intragastrally) amounted to 22%; in data set [2] (75 mg/kg intragastrally), 45%. Moreover, the “Ulcer Inhibition in %” value in data set [4] (100 mg/kg intragastrally) is on record as 52%. Moreover, in data set [4] (in words), the ulcer-protective action entry is “the most effective representative”.

For the molecule `CSC1=C(C#N)C(c2ccccc2)(c2ccccc2)C(=O)N1CCCN1CCCCC1` [Compound 12, 2-methylthio-5-oxo-4,4-diphenyl-1-(3-piperidinopropyl)-2-pyrroline-3-carbonitrile], the LD50 at 168 h in data set [1] is over 1600 mg/kg. In addition, the IC50 in data set [5] (0.05 h) was 150 ± 20 µM.

Consider `CCSC1=C(C#N)C(c2ccccc2)(c2ccccc2)C(=O)N1CCCN(C)C` [Compound 3, 2-ethylthio-1-(3-dimethylaminopropyl)-5-oxo-4,4-diphenyl-2-pyrroline-3-carbonitrile hydrochloride], for which, in data set [5] (0.05 h), the IC50 worked out at 150 ± 40 µM.

In the case of `CCSC1=C(C#N)C(c2ccccc2)(c2ccccc2)C(=O)N1CCN1CCCCC1.Cl` [Compound 1, 2-Ethylthio-5-oxo-4,4-diphenyl-1-(2-piperidinoethyl)-2-pyrroline-3-carbonitrile hydrochloride], in data set [1], the LD50 at 168 h turned out to be 1600 mg/kg. Moreover, the “Inhibition of Paw Edema in %” value in data set [2] (125 mg/kg intragastrally) stood at 36%.

Consider `CCSC1=C(C#N)C(c2ccccc2)(c2ccccc2)C(=O)N1CCCN(CC)CC` [Compound 16, 1-(3-diethylaminopropyl)-2-ethylthio-5-oxo-4,4-diphenyl-2-pyrroline-3-carbonitrile hydrochloride], for which the IC50 in data set [5] (0.05 h) amounted to 140 ± 60 µM.
